Test results taken from US20240307453A1, “METHODS FOR CONTROLLING BLEEDING IN A SUBJECT AFFLICTED WITH HERMANSKY PUDLAK SYNDROME USING PLATELET DERIVATIVE COMPOSITIONS” (Cellphire, Inc., priority 2023, published 2024).

What was measured:
GpIIbIIa receptor = target: T1, GpIIbIIa receptor (Homo sapiens, UniProt P05106+P08514); experiment: Mixed aggregation of washed FPH with washed platelets with and without RGDS; format: cell-based; details: 1 mM RGDS
T1 construct: endogenous in cells; host or cells: FPH (freeze-dried human platelet derivatives); in A8 also washed platelets from healthy donors
Procedure: For one of the replicates of each, RGDS was added to achieve a 1 mM concentration. […] The mixture was prepared immediately prior to running on the PAP-8E Platelet Aggregometer. PAP-8E was turned on and samples were incubated with stirring for 10 minutes at 37° C. and HMTA was used as a control for collagen agonist used in aggregation. Stir bars were added to cuvettes and 225 μl of sample was added to cuvettes by reverse pipetting and inserted into channels. Cuvettes were then transferred from warming wells to the testing wells. Run was started for each channel with 10 seconds in between. 25 μl of collagen (Helena Biosciences, helenabiosciences.com) was added to appropriate cuvettes when the timer for the channel reached 8:00 minutes. HMTA was added in place of the agonist to the first channel as a control. After measurement was completed for collagen agonist, each sample was transferred to a microcentrifuge tube and AcT count was taken.

FXa = target: T2, FXa (Homo sapiens, UniProt P00742); experiment: FPH thrombin generation response to Factor X blocking by rivaroxaban; format: biochemical; details: dose dependent blocking of Factor X
T2 construct: tissue Octophrama (so in the source); host or cells: Octaplas plasma mixed with FPH
Procedure: Rivaroxaban (Cayman Chemical, caymanchem.com) was diluted in TGA dilution buffer to 0 μg/ml, […], 350 ng/ml, and 70 ng/ml. 60 mM GPRP (BACHEM, bachem.com), thrombin (Sigma Aldrich, sigmaaldrich.com) and Octoplas (Octophrama, octopharma.com) were thawed according to manufacturer's guidelines. CLARIOstarPlus was used to perform TGA. A master mix of Octaplas, PRP reagent (Diagnostica Stago, Cat. No. 86196), and GPRP was prepared in a ratio of 68:15:5, respectively. Flu substrate and Fluo-buffer were combined according to manufacturer's guidelines to create FluCa (Diagnostica Stago, stago.com). Master mix and FluCa solution were placed in the 37° C. air incubator with agitation for 45±5 minutes. […] 10 μl of each sample was dispensed into selected wells of a 96-well plate (Corning, corning.com) by reverse pipetting. TGA dilution buffer for thrombin was used in the thrombin standard ladder. […] CLARIOstarPlus injectors 1 and 2 were primed with master mix and FluCa solution with 250 μl, then the injector was placed in the active position. The CLARIOstarPlus TGA program was loaded with parameters for TGA assay with injectors set to add 90 μl of master mix and 40 μl of FluCa solution to each well. Plate was inserted to be read.

[1] = system: fibrinogen, GPIIIa (CD61), complexed GPIIb/IIIa (CD41); details: 5 mM EDTA
Procedure: EDTA (Sigma Aldrich, sigmaaldrich.com) was added to one of the duplicates to achieve a 5 mM concentration. […] Stain volumes were as follows: Unstained: 10 μl of sample and 20 μl HMTA, 9F9: 10 μl of sample, 5 μl antibody, and 15 μl HMTA, CD41: 5 μl of sample and 12 μl antibody, and CD61: 10 μl of sample, 10 μl antibody, and 10 μl HMTA. Stained samples were incubated for 20 minutes for 9F9, CD61, and vWF and 5 minutes for CD41. 470 μl of the samples were added to 9F9 and CD61 stains and 233 μl of the samples were added to CD41 stains. 100 μl of each sample was transferred to wells in a 96-well plate. All samples were measured using the Quanteon flow cytometer.

washed platelets (WPS) = experiment: Mixed aggregation of washed FPH with washed platelets (WPS) with and without EDTA and agonists; format: cell-based, human; details: 5 mM EDTA
Procedure: This was repeated 5 times. […] In one of the duplicates, EDTA was added to achieve a 5 mM concentration. […] These samples were prepared immediately prior to running on the PAP-8E Platelet Aggregometer. The different agonist were prediluted in HMTA according: arachidonic acid (Helena Biosciences, Helena-biosciences.com) 1:10 in HMTA, TRAP-6 (Tocris, tocris.com) by adding 7.5 μl to 292.5 μl HMTA.
The PAP-8E Platelet Aggregometer was turned on and samples were incubated with stirring for 10 minutes at 37° C. for all mixed aggregation experiments. The samples with HMTA was used as a control for agonists used in aggregation. The following agonists were used to induce aggregation in samples: 10 μg/ml collagen (Helena Biosciences, Helena-biosciences.com), 10U/ml thrombin (Helena Biosciences, Helena-biosciences.com), 10 μg/ml arachidonic acid, and 10 μM TRAP-6. 225 μl of the samples were added to cuvettes by reverse pipetting and inserted in the channels. Cuvettes were transferred from the warming wells to the testing wells. The test was started and 25 μl of each agonist was added to the appropriate cuvettes when the timer for the channel reached 8:00 minutes. HMTA was added in place of the agonist to the first channel in each module. Once measurements were completed for each agonist, the samples were transferred to a microcentrifuge tube and AcT count was taken. […]

[2] = system: FPH aggregation (GpIIbIIIa); details: 5 mM MgCl2, FPH 250 k/μL, tirofiban present
Procedure: A master mix of FPH or APU was prepared by combining cells dosed at 250 k/μL with HMTA to arrive at enough volume to fill 225 μl of sample into 8 cuvettes, plus extra buffer volume if necessary. 225 μl of master mix was transferred to cuvettes as specified along with a magnetic stir bar in each cuvette. […] The groups tested were as follows. (+) indicates the presence while (−) indicates the absence of the specified reagent: • 0.32 mM DMSO−/5 mM Mg−/1 mM Tiro− (negative control) • 0.32 mM DMSO+/5 mM Mg−/1 mM Tiro− (negative control) • 0.32 mM DMSO−/5 mM Mg+/1 mM Tiro− (positive control) • 0.32 mM DMSO+/5 mM Mg+/1 mM Tiro− (positive control) • 0.32 mM DMSO+/5 mM Mg−/1 mM Tiro− (#of samples=2) • 0.32 mM DMSO+/5 mM Mg−/1 mM Tiro− (#of samples=2)

[3] = system: FPH aggregation (surface fibrinogen); experiment: MgCl2 aggregation dose response after plasmin treatment of FPH; format: cell-based, human; details: 0, 2, 5, 10 mM MgCl2, plasmin 1 hour
Procedure: Both master mixes were incubated at room temperature with agitation for 1 hour. […] Magnetic stir bars were placed in all the cuvettes. […] Each concentration of MgCl2 to be tested was prepared in duplicate. […] Plasmin causes the breakdown of fibrinogen.

[4] = target: T3, fibrinogen on the surface of FPH (Homo sapiens, UniProt P02671+P02675+P02679); experiment: Surface marker detection of washed FPH at different plasmin concentrations; format: cell-based; details: 0, 1.46, 2.92, 14.6, 29.2 nkat/ml plasmin, 1 hour
T3 construct: endogenous in cells; host or cells: washed FPH (freeze-dried human platelet derivatives)
T3 sequence (P02671 20-629 limits assumed): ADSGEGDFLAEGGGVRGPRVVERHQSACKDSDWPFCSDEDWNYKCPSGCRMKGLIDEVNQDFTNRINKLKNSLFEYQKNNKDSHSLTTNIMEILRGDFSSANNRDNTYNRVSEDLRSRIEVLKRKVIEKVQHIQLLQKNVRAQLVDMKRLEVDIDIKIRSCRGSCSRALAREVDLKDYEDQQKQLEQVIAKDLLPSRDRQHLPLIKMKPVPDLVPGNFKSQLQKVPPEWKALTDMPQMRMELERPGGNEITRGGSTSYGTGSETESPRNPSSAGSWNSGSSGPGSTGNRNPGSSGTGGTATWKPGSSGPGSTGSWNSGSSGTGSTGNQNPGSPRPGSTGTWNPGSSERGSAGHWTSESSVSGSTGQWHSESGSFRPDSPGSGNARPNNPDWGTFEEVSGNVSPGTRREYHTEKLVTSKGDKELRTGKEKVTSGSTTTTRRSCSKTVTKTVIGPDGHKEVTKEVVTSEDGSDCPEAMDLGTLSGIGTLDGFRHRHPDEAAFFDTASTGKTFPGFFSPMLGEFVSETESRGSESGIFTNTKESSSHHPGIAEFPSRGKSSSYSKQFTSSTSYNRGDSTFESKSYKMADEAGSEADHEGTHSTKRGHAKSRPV
T3 sequence (P02675 31-491): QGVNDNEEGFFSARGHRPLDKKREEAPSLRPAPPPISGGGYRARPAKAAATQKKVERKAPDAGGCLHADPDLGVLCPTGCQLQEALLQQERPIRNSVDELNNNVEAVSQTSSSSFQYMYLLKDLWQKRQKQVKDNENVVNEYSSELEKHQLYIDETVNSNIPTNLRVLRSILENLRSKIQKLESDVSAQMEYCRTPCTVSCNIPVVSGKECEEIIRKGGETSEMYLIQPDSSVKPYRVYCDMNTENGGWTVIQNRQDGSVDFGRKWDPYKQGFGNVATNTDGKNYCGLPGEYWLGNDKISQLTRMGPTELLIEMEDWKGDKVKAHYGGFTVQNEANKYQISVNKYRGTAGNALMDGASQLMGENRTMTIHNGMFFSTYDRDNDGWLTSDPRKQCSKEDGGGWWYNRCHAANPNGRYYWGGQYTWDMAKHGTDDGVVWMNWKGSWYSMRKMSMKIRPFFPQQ
T3 sequence (P02679 27-453): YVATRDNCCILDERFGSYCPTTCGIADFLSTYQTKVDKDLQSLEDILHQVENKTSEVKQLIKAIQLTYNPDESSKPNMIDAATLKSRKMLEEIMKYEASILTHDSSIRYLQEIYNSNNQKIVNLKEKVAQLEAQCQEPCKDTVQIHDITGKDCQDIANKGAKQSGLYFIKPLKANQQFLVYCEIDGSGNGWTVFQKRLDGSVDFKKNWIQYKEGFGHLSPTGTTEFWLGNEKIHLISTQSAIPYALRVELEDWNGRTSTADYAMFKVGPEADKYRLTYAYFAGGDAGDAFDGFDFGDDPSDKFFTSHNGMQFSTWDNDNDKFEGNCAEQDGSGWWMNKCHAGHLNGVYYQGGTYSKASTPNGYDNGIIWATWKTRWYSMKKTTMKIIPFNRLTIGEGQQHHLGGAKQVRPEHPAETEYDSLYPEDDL

[5] = system: aggregation of washed FPH with washed platelets; experiment: Mixed aggregation of washed FPH with washed platelets with and without plasmin; format: cell-based, human; details: plasmin-treated washed FPH mixed with WPS
Procedure: This was repeated for optimal concentration of plasmin added based on flow results. To initiate spontaneous aggregation between the washed platelets and washed FPH the following steps were performed for the mixed samples. Stir bars were added to cuvettes, 225 μl of sample was added to the cuvettes by reverse pipetting and inserted into channels. The cuvettes were transferred from the warming wells to the testing wells. The run was started for each channel with 10 seconds in between. 25 μl of HMTA was added to all cuvettes once the timer for the channel reached 8:00 minutes. After measurements were completed, each sample was transferred to a microcentrifuge tube and AcT counts were taken.

[6] = washed FPH and washed platelets

T2 sequence (P00742 235-488 limits assumed): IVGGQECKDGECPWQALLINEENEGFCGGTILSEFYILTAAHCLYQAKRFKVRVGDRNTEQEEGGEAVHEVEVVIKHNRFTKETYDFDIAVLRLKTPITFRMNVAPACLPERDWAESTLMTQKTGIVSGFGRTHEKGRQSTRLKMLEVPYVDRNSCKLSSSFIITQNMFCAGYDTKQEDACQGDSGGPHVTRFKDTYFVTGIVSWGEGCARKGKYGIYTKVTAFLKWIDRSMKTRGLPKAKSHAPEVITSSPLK
T2 sequence (P00742 41-179 limits assumed): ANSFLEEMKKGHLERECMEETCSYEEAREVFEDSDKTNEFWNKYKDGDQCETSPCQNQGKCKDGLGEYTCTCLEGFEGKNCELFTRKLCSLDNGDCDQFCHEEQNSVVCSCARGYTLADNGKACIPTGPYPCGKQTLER

Molecule: Arg-Gly-Asp-Ser (RGDS; printed: Arg-Gly-Asp-Ser) [GpIIbIIa receptor antagonist RGDS peptide]
- effect on mixed aggregation of washed FPH and washed platelets (GpIIbIIa receptor): inhibited aggregation
- fold lower platelet counts in untreated mixed sample in comparison to the treated mixed sample (GpIIbIIa receptor): > 2 fold

Molecule: O=C(NC[C@H]1CN(c2ccc(N3CCOCC3=O)cc2)C(=O)O1)c1ccc(Cl)s1 [Rivaroxaban]
- thrombin generation of FPH (FXa): decreasing thrombin generation
- maximum peak time of thrombin generation of FPH (FXa; 1:64 dilution): increasing maximum peak time

Molecule: O=C(O)CN(CCN(CC(=O)O)CC(=O)O)CC(=O)O [EDTA]
- Bound fibrinogen with addition of EDTA ([1]; washed FPH): decreases slightly
- CD61 (GpIIIa) signal with addition of EDTA [1, 6]: decreased slightly
- drop in the GpIIbIIIa complex (CD41) with addition of EDTA [1, 6]: more than half
- effect on aggregation between washed FPH and washed platelets (washed platelets (WPS)): prevents aggregation

Molecule: CCCCS(=O)(=O)N[C@@H](Cc1ccc(OCCCCC2CCNCC2)cc1)C(=O)O [tirofiban]
- effect on divalent cation induced aggregation of FPH [2]: abrogated

B1: plasmin: Plasmin causes the breakdown of fibrinogen (protein, UniProt P00747 20-580; P00747 581-810, looked up)
Plasmin heavy chain A: EPLDDYVNTQGASLFSVTKKQLGAGSIEECAAKCEEDEEFTCRAFQYHSKEQQCVIMAENRKSSIIIRMRDVVLFEKKVYLSECKTGNGKNYRGTMSKTKNGITCQKWSSTSPHRPRFSPATHPSEGLEENYCRNPDNDPQGPWCYTTDPEKRYDYCDILECEEECMHCSGENYDGKISKTMSGLECQAWDSQSPHAHGYIPSKFPNKNLKKNYCRNPDRELRPWCFTTDPNKRWELCDIPRCTTPPPSSGPTYQCLKGTGENYRGNVAVTVSGHTCQHWSAQTPHTHNRTPENFPCKNLDENYCRNPDGKRAPWCHTTNSQVRWEYCKIPSCDSSPVSTEQLAPTAPPELTPVVQDCYHGDGQSYRGTSSTTTTGKKCQSWSSMTPHRHQKTPENYPNAGLTMNYCRNPDADKGPWCFTTDPSVRWEYCNLKKCSGTEASVVAPPPVVLLPDVETPSEEDCMFGNGKGYRGKRATTVTGTPCQDWAAQEPHRHSIFTPETNPRAGLEKNYCRNPDGDVGGPWCYTTNPRKLYDYCDVPQCAAPSFDCGKPQVEPKKCPGR
Plasmin light chain B: VVGGCVAHPHSWPWQVSLRTRFGMHFCGGTLISPEWVLTAAHCLEKSPRPSSYKVILGAHQEVNLEPHVQEIEVSRLFLEPTRKDIALLKLSSPAVITDKVIPACLPSPNYVVADRTECFITGWGETQGTFGAGLLKEAQLPVIENKVCNRYEFLNGRVQSTELCAGHLAGGTDSCQGDSGGPLVCFEKDKYILQGVTSWGLGCARPNKPGVYVRVSRFVTWIEGVMRNN
modifications: Plasmin
notes: Plasmin causes the breakdown of fibrinogen
- FPH aggregation response to MgCl2 after plasmin treatment [3]: no dose dependent response
- effect on fibrinogen on the surface of FPH [4]: degrades fibrinogen on the surface of FPH
- effect on aggregation of washed FPH with washed platelets [5]: inhibits the aggregation
